The values below come from article PMC6349845, “Overcoming NADPH product inhibition improves D-sorbitol conversion to L-sorbose” (Scientific Reports, 2019).

Experiment [1] deals with T1, GoSLDH (Gluconobacter oxydans, UniProt Q9KWR5).
T1 construct: codon-optimised synthetic gene in pET28a, expressed in E. coli BL21-CodonPlus(DE3)-RIL, purified (His-tag vector)
T1 sequence (Q9KWR5 1-485): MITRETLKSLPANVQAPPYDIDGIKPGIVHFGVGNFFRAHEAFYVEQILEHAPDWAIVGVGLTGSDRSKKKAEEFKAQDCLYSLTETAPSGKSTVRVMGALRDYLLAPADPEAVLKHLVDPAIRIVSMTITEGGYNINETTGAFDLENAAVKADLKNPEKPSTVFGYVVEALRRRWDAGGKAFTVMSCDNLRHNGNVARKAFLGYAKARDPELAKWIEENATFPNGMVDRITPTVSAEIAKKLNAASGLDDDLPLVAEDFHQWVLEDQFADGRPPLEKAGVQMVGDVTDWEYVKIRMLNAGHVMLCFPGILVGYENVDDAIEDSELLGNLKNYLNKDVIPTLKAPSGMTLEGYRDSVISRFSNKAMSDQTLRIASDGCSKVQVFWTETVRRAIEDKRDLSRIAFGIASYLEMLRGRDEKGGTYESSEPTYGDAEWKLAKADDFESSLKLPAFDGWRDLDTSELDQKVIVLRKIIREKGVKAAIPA
The experiment can be described thus: isothermal titration calorimetry. The experiment is classed as binding. On the technique in general: In ITC the heat of successive injections is recorded.

Experiment [2] has as its target T1, GoSLDH. The experiment can be described thus: steady-state inhibition kinetics, double-reciprocal plots. The experiment is classed as biochemical.

What is called Kd is a measure of binding affinity in units of concentration. The low end stands for a tighter complex, the high end for a looser complex. What is called Ki is a measure of affinity in units of concentration, obtained from inhibition or displacement.

On to `NC(=O)C1=CN([C@@H]2O[C@H](COP(=O)(O)OP(=O)(O)OC[C@H]3O[C@@H](n4cnc5c(N)ncnc54)[C@H](OP(=O)(O)O)[C@@H]3O)[C@@H](O)[C@H]2O)C=CC1` [NADPH], for which binding in experiment [1] was put at a Kd of 67.1 µM. Further, the Ki in experiment [2] is 100 µM. For the compound `NC(=O)c1ccc[n+]([C@@H]2O[C@H](COP(=O)(O)OP(=O)(O)OC[C@H]3O[C@@H](n4cnc5c(N)ncnc54)[C@H](OP(=O)(O)O)[C@@H]3O)[C@@H](O)[C@H]2O)c1` [NADP^+], binding in experiment [1] was characterised by a dissociation constant (Kd) of 89.3 µM.
